Data taken from PubChem BioAssay (NCI).
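96-well plates; 48 h exposure; 5 concentrations. Endpoints by linear interpolation between flanking doses. Not reached: highest tested concentration assigned. At the TGI there is no net growth.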

Columns and labels:
Assay in all cases: NCI tumour cell line growth inhibition, 48 h
A498 renal = system: A498 renal
COLO 205 colon = system: COLO 205 colon
DLD-1 colon = system: DLD-1 colon
DMS 114 small cell lung = system: DMS 114 small cell lung
DMS 273 small cell lung = system: DMS 273 small cell lung
KM12 colon = system: KM12 colon
LXFL 529 NSCLC = system: LXFL 529 NSCLC
MOLT-4 leukemia = system: MOLT-4 leukemia
OVCAR-4 ovarian = system: OVCAR-4 ovarian
SK-MEL-2 melanoma = system: SK-MEL-2 melanoma
SNB-75 CNS = system: SNB-75 CNS
MDA-MB-231 breast = system: MDA-MB-231 breast

SMILES | TGI (A498 renal) | TGI (COLO 205 colon) | TGI (DLD-1 colon) | TGI (DMS 114 small cell lung) | TGI (DMS 273 small cell lung) | TGI (KM12 colon) | TGI (LXFL 529 NSCLC) | TGI (MOLT-4 leukemia) | TGI (OVCAR-4 ovarian) | TGI (SK-MEL-2 melanoma) | TGI (SNB-75 CNS) | TGI (MDA-MB-231 breast)
O=C1C(Cl)=C(Cl)C(=O)N1c1ccccc1Cl | > 100 µM | > 100 µM | > 94.7 µM | > 100 µM | > 100 µM | > 100 µM | > 86.3 µM | > 78.5 µM | > 100 µM | > 100 µM | > 100 µM | –
Cn1nc(-c2ccccc2)c2c(/C=C/c3ccc(Cl)cc3)onc2c1=O | – | > 100 µM | > 100 µM | > 100 µM | > 100 µM | – | > 100 µM | > 100 µM | – | – | – | –
Cc1ccccc1C=NC12CC3CC(CC(C3)C1)C2 | > 100 µM | > 100 µM | > 100 µM | > 100 µM | > 100 µM | > 100 µM | > 100 µM | > 100 µM | > 100 µM | > 100 µM | > 100 µM | –
O=C(Nc1ccccc1)n1cc(-c2ccccn2)c(N2CCOCC2)n1 | 51.1 µM | > 100 µM | > 100 µM | > 100 µM | 42.1 µM | 62.7 µM | > 100 µM | > 100 µM | > 100 µM | – | 43.7 µM | –
CCC(C)C(=O)O[C@H]1C(=O)O[C@@H]2C[C@H]3C(C)=CC(=O)[C@@H](O)[C@]3(C)[C@H]3[C@@H](O)[C@H](O)[C@@]4(C)OC[C@]32[C@@H]14 (stereo partly specified) | < 0.01 µM | 0.278 µM | 0.317 µM | 0.0431 µM | 0.0468 µM | 0.138 µM | 0.123 µM | 0.267 µM | < 0.01 µM | < 0.0507 µM | < 0.0299 µM | 388 nM
N#CC(C(=O)CCC(=O)Nc1ccc(Cl)cc1)c1ccc(Cl)cc1 (stereo unspecified) | > 100 µM | > 100 µM | > 100 µM | > 100 µM | > 100 µM | > 100 µM | > 100 µM | > 100 µM | > 100 µM | > 100 µM | – | –
Cc1ccc(C(=O)C(c2nc3n(c2O)C(=N)N=N3)c2nc3n(c2O)C(=N)N=N3)cc1 (stereo unspecified) | > 100 µM | > 100 µM | > 100 µM | > 100 µM | > 100 µM | > 100 µM | > 100 µM | > 100 µM | > 100 µM | > 100 µM | > 100 µM | –
CCc1cccc(C)c1N1C(=O)C(=O)C(c2nc3ccccc3o2)/C(=N/NC(=S)NN)C1=O (stereo unspecified) | > 100 µM | > 100 µM | > 100 µM | > 100 µM | > 100 µM | > 100 µM | > 100 µM | – | > 100 µM | > 100 µM | > 100 µM | –
O=C[C@]12CC=C3OC4OC5(CCCCC5)OC4[C@H]3[C@H]1C(=O)C=CC2=O (stereo partly specified) | > 100 µM | – | 38.9 µM | 50.8 µM | > 100 µM | > 100 µM | 39.8 µM | 15.3 µM | 31.7 µM | > 100 µM | – | –
Cn1cnc([N+](=O)[O-])c1Sc1nc2ccccc2o1 | 45.2 µM | 3.4 µM | 16.6 µM | 4.89 µM | 9.93 µM | 20.5 µM | 12.9 µM | 8.99 µM | 15 µM | 52.9 µM | 32.9 µM | –
N#CC(C#N)=Cc1ccc(C(O)P(=O)(O)O)cc1 (stereo unspecified) | > 100 µM | > 100 µM | > 100 µM | > 100 µM | > 100 µM | > 100 µM | > 100 µM | > 100 µM | > 100 µM | > 100 µM | – | –
CN1C(c2ccccc2)CC(C)(O)CC1c1ccccc1 (stereo unspecified) | > 100 µM | > 100 µM | > 100 µM | > 100 µM | > 100 µM | > 100 µM | > 100 µM | > 100 µM | > 100 µM | > 100 µM | > 100 µM | –
O=C(CC(=O)N1N=C(n2ccc3ccccc32)CC1c1ccccc1)Nc1ccc(Cl)cc1 (stereo unspecified) | > 100 µM | > 100 µM | > 100 µM | > 100 µM | > 100 µM | > 100 µM | > 100 µM | > 100 µM | > 100 µM | > 100 µM | > 100 µM | –
CC12CC/C(=N/NC(N)=O)C3C1CCCC32 | > 100 µM | > 100 µM | > 100 µM | > 100 µM | > 100 µM | > 100 µM | > 100 µM | > 100 µM | > 100 µM | > 100 µM | > 100 µM | –
CCOC(=O)NC(=O)c1cn(CCCCCCCCCCC(=O)NCCCN2CCN(CCCNC(=O)CCCCCCCCCCn3cc(C(=O)NC(=O)OCC)c(=O)[nH]c3=O)CC2)c(=O)[nH]c1=O | > 100 µM | > 100 µM | > 100 µM | > 100 µM | > 100 µM | > 100 µM | > 100 µM | > 100 µM | – | > 100 µM | > 100 µM | –
Cc1ccc(NC(=O)CCc2nnc3s/c(=C\c4cccc([N+](=O)[O-])c4)c(=O)n23)cc1 | > 100 µM | > 100 µM | > 100 µM | > 100 µM | > 100 µM | > 100 µM | > 100 µM | > 100 µM | > 100 µM | > 100 µM | > 100 µM | –
Cc1cc(Cl)ccc1NC(=O)CC1SC(=NC(=O)c2ccccc2Cl)NC1=O (stereo unspecified) | > 100 µM | – | 34 µM | 41.8 µM | 37 µM | – | 32.3 µM | 6.65 µM | 38.6 µM | 71.1 µM | 35 µM | –
O=C(CCC(=O)Nc1ccc(Cl)cc1)CC(=O)c1ccc2ccccc2c1 | > 100 µM | > 100 µM | > 100 µM | > 100 µM | > 100 µM | > 100 µM | > 100 µM | > 100 µM | > 100 µM | > 100 µM | > 100 µM | –
CC(=O)n1nnc2ccc([N+](=O)[O-])cc21 | – | > 100 µM | > 100 µM | > 100 µM | > 100 µM | > 100 µM | > 100 µM | > 100 µM | > 100 µM | > 100 µM | > 100 µM | –
N#CCCN(C1=NN(C(=O)CC(=O)Nc2ccc(Cl)cc2)C(c2ccccc2)C1)c1ccc(Cl)cc1 (stereo unspecified) | > 100 µM | > 100 µM | > 100 µM | > 100 µM | > 100 µM | > 100 µM | > 100 µM | > 100 µM | > 100 µM | > 100 µM | > 100 µM | –
O=C1c2cccc([N+](=O)[O-])c2C(=O)c2nccnc21 | 17.3 µM | – | 11.4 µM | 2.3 µM | 12.3 µM | – | – | 5.22 µM | 2.8 µM | 2.9 µM | 2.35 µM | –
COC(=O)C1CC(c2ccc(Cl)cc2)=NO1 (stereo unspecified) | > 100 µM | > 100 µM | > 100 µM | > 100 µM | > 100 µM | > 100 µM | > 100 µM | > 100 µM | > 100 µM | > 100 µM | > 100 µM | –
COc1cccc(N2C(=O)/C(=C/c3ccc(N(CCC#N)CCC#N)cc3)N=C2c2cc([N+](=O)[O-])ccc2Cl)c1 | > 100 µM | 62.4 µM | > 100 µM | > 100 µM | > 100 µM | > 100 µM | > 100 µM | 68.2 µM | > 100 µM | > 100 µM | > 100 µM | –
